Measurements from patent EP3293246A1, “LUBRICANT COMPOSITIONS CONTAINING DIUREA COMPOUNDS” (BASF SE, priority 2016, dated 2018).

Assay: Solubility 0.5% in base oil Yubase 4, visual inspection of appearance
Format: physicochemical
Settings: 0.5 g compound stirred with 99.5 g Yubase 4 at 100°C for 4 hours, cooled to room temperature
Experimental: For the determination of the solubilities, 0.5 g of the compound under test was stirred with 99.5 g of Yubase 4 at 100°C for 4 hours and subsequently cooled to room temperature. The appearance of the solution was assessed by visual inspection.

Solubility 0.5% in Yubase 4; visible appearance, no clear solution:
CCCCC(CC)CNC(=O)Nc1ccc(C)c(NC(=O)NCC(CC)CCCC)c1 (stereo not drawn) [Example 1]
CCCCCCCCC=CCCCCCCCCNC(=O)Nc1ccc(C)c(NC(=O)NCCCCCCCCC=CCCCCCCCC)c1 [Example 5]
Cc1ccc(NC(=O)NC(C)CCCC(C)C)cc1NC(=O)NC(C)CCCC(C)C (stereo not drawn) [Example 6]
